For data set [1], the system named is MCA205 cells. In words: In vivo vaccination and rechallenge, MCA205 model. The following applies: vaccination with MCA205 cells pre-treated with 500 µM Cisplatin or 1400 µM Oxaliplatin (dark), 5.5 µM Ce6 or 3 µM Os2 (740 nm). Also noted: species or system C57BL/6 mice. The source says:
Next, we used these concentrations in the MCA205 vaccination and rechallenge model on C57BL/6 mice to test the in vivo ICD effect of Os2, following the same experimental procedure as that used for CT26‐luc cells in Figure 5A. […] Body weights remained stable across all groups throughout the study, further supporting the good in vivo biosafety of Os2.
The BALB/c female mice were randomly divided into 4 groups with each group containing 5 mice, which were named as Control group, Cisplatin group, Ce6 group and Os2 group. CT26-luc cells wer e treat ed in vitro with 600 µM Cisplatin in the dark, 6.5 µM Ce6 or 1.8 µM Os2 upon 740 nm LED light irradiation (60 min, 12.6 J cm-2) following the methods described above. Subsequently, treated CT26-luc cells (3×10^5 cells in 100 µ L sterile PBS) or 100 µ L sterile PB S were injected subcutaneously into the left flank of each mouse. One week later, mice were r echalleng ed by injection with untreated CT26- luc cells (1×10^6 cells in 100 µL sterile PBS). The mice were monitored by an in vivo imaging system (Biospace Lab, Photon Imager Optima) and the tumor volume was calculated with the following equation: tumor volume = width 2 × length × […]
In vivo vaccination study on MCA205 cells
The C57BL/6 mice were randomly divided into 5 groups with each group containing 10 mice, whi ch w ere nam ed as Control group, Cisplatin group, Oxaliplatin group, Ce6 group and Os2 group. M CA205 cells were treated in vitro with 500 µM Cisplatin o r 1400 µM Oxaliplatin in the dark, 5.5 µM Ce6 or 3 µM Os2 upon 740 nm LED light irradiation (60 min, 12.6 J cm-2) following the methods described above. Subsequently, treated MCA205 cells (3 ×10^5 cells in 100 µ L sterile PBS) or 100 µ L sterile PBS were injected subcutaneously into the left flank of each mouse. One week later, mice were rechallenged by injection with untreated MCA205 cells (1×10^6 cells in 100 µ L sterile PBS). The tumor volume was calculated with the following equation: tumor volume =

Data set [2] concerns MCA205 cells. In words: Annexin V-FITC/propidium iodide (AV/PI) cell viability assay by flow cytometry. The data set is classed as cell-based, mouse. Particulars: MCA205, in the dark. The text has this:
Regarding the optimal dose of each drug for in vivo vaccination, we continued to follow the same standards as with CT26‐luc cells, using the concentration of each drug that results in approximately 5% of live cells as the in vivo dose. The testing method remained the same, using the AV/PI dual staining assay. Negative controls still included the untreated group (direct injection of PBS solution) and the non‐ICD inducer Cisplatin. Based on the in vitro HMGB‐1 release results, Ce6 was maintained as the positive control. For a more comprehensive comparison, we also added the platinum‐based chemotherapeutic agent Oxaliplatin as a non‐PS ICD inducer, serving as an additional positive control.
As the drug concentration increased, the cells gradually shifted to dying (Q3, Annexin V^+/PI^−) or dead (Q2, Annexin V^+/PI^+ and Q1, Annexin V^−/PI^+) state. For MCA205 cells, the concentrations corresponding to approximately 5% cell survival for each drug were 500 µM Cisplatin and 1400 µM Oxaliplatin in the dark, 5.5 µM Ce6 and 3 µM Os2 under 740 nm LED light illumination. […]
incubated for 24 h. Cells were then treat ed with the determined IC50 of complexes and irradiated or kept in the dark. Supernatants were collected 12 h post-t reatm ent, and the extracellular ATP content was measured with Adenosine 5′ -triphosphate (ATP) Bioluminescent Assay Kit (Sigma-Aldrich) according tomanufacturer ’s ins truction.
Cell viability assay f o r in vivo by flow cytometry
CT26-luc or MCA205 cells were seeded in 6-well plates at a density of 1 ×1 05 cells per well and cultured for 24 h at 37 °C with 5% CO 2. The medium was replaced by various concentrations of the compound dilutions in fresh medium.For Ce6 and Os2, after 4 h incubation in the dark, the medium w as r efr eshed and the plates wer e illuminated with a LUMOS-BIO photoreactor (Atlas Photonics), followed by an additional 20- h incubation in the dark. […]
(§1) 556419) and PI (BD Biosciences, Catalog no.51- 66211E). CT26- luc cells were analyzed by flow cytometry (Beckm an Coulter Life Sciences, CytoFLEX LX Flow Cytometer). […]
For orientation: In flow cytometry, cells or beads pass a laser one at a time.

For another data set, the system named is CT26‐luc cells. The data set is described as above. The data set is classed as cell-based, mouse. The following applies: in the dark, 24 h. The procedure: Following the gold standard assessment method, the Annexin V‐FITC/propidium iodide (AV/PI) dual staining assay was conducted to screen the suitable concentrations of each drug (Figure S25). In addition, to better monitor tumor growth in vivo, luciferase‐labelled tumor cells (CT26‐luc) were used for in vivo experiments by bioluminescence imaging. […] As the concentration of each drug was increased, the proportion of live cells decreased, while the percentage of dying cells (Q3, Annexin V^+/PI^−) and dead cells (Q2, Annexin V^+/PI^+ and Q1, Annexin V^−/PI^+) increased. The concentrations at which approximately 5% of the cells remained alive (IC95) were 600 µM for Cisplatin in the dark, 1.8 µM for Os2, and 6.5 µM for Ce6 upon 740 nm LED light irradiation (60 min, 12.6 J cm^−2). These concentrations were selected for the subsequent in vivo vaccination studies. […]
incubated for 24 h. Cells were then treat ed with the determined IC50 of complexes and irradiated or kept in the dark. Supernatants were collected 12 h post-t reatm ent, and the extracellular ATP content was measured with Adenosine 5′ -triphosphate (ATP) Bioluminescent Assay Kit (Sigma-Aldrich) according tomanufacturer ’s ins truction. […]
as §1

Data set [3] deals with mouse fibrosarcoma (MCA205) cells. Kind of data set: Resazurin cell viability assay, phototoxicity. The following applies: MCA-205, light or radiation study, 1 h, MCA205, 740 nm, 60 min, 12.60 J/cm2. The data set is classed as cell-based. Here is the method: (100 U ml−1), streptomycin (100 U ml−1), and 1% L-glutamine. The murine fibrosarcom a (MCA205) cells were cultured in RPMI 1640 medium with 10% fetal bovine serum (FBS), penicillin (100 U ml−1), streptomycin (100 U ml−1), and 1% L-glutamine. All cells were incubated at 37 °C in a humidified atmosphere with 5 % CO2.
(§2) Normoxia. The in vitro viability of cells exposed to the complexes was determined using a resazurin assay. C ells were seeded in 96-well plates at densities of 4,000 cells/well for CT26, MC A205 and U-87 MG cells, and 8,000 cells/well for MRC-5 and NIH/3T3 cells. A fter 24 h of growth at 37 °C wit h 5% CO2, the medium was replaced with fresh medium containing various concentrations of the compounds . Following a 4- h incubation in the dark, the medium was refres hed , and the plates were exposed to irradiation usinga LUM OS -BIO photoreactor (At las Photonics).N on- ir rad iated plates were similarly refr eshed with medium and kept in the dark for the same duration. After a 40- h r ecov ery period, a f reshly pr epar ed resazurin solution (0.2 mg/mL) was added to each well, and the plates were left in the dark for 4 h before analysis on a B i o Te k Cytation 5 Cell Imaging Multimode Reader (Agil ent Technologies). […]
A general note: Resazurin is reduced to fluorescent resorufin, in cell work by metabolically active cells.

In data set [4] the test system is mouse colon adenocarcinoma (CT26) cells. Kind of data set: Resazurin cell viability assay, (photo)cytotoxicity, normoxia. Particulars: for IC50: Mus musculus, normoxia. Type of data set: cell-based. The procedure:
Given that most ICD studies focus on breast, non‐small cell lung carcinoma, and colon cancer, and since ICD was first discovered in mouse colon cancer cells (CT26), we initially tested our compounds on CT26 cells. Cells were incubated with nine different concentrations (mainly from 0.01 to 100 µM) of the compounds for 4 h in the dark. Then, the diluted solutions containing the compounds were replaced by fresh medium, and the cells were either illuminated or kept in the dark for 1 h more. After 2 days, IC50 values (concentration of the agent inhibiting cell growth by 50%) were determined with the resazurin assay, using chlorin e6 (Ce6) and protoporphyrin IX (PpIX) for comparison (Figure S10). The clinically approved chlorin mixture Radachlorin contains ∼80% Ce6, while 5‐aminolevulinic acid (Ameluz and Levulan) and methyl 5‐aminolevulinate (Metvix and Metvixia) serve as precursors of PpIX. Therefore, Ce6 and PpIX were used for comparison purposes.
(100 U ml−1), streptomycin (100 U ml−1), and 1% L-glutamine. […]
All cells were incubated at 37 °C in a humidified atmosphere with 5 % CO2.
as §2

Data set [5] in a line: Photophysical properties (fluorescence and singlet oxygen quantum yield, lifetime). Type of data set: physicochemical. Particulars: in ethanol. The procedure: System Inc, Phoenixville, PA, USA). The excitation beam is separated by a SPEX dual […]
network monochromator (1200 lines / mm blazed at 330 nm). The fluorescence was […]
measured by the UV-Visible detector via the SPEX dual network emission […]
monochromator (1200 lines / mm blazed at 500 nm). Singlet oxygen production was […]
measured with an infrared detector InGaAs (800 - 1550 nm) via the dual network […]
emission monochromator SPEX (600 lines / mm blazed at 1 µm).
All spectra were measured using 4-sided quartz cells. The absorption values of the […]
references and samples at the excitation wavelength were adjusted to 0.2. All emission […]
spectra were normalized to the same absorbance for the purpose of comparison.
[Ru(bpy)3]2+ in acetonitrile was chosen as standard for both fluorescence and singlet […]
oxygen quantum yield determination. Fluorescence quantum yield of [ Ru(bpy)3]2+ i n […]
acetonitrile is evaluated at 0.077.[5] Singlet oxygen quantum yield of [ Ru(bpy)3]2+ i n […]
acetonitrile is evaluat ed at 0.77.[6]
Time-resolved experiments were performed using for excitation: a pulsed laser diode […]
emitting at 407 nm (LDH-P-C-400M, FWHM < 70 ps, 1 MHz) coupled with a driver […]
PDL 800- D (both PicoQuant GmbH, BERLIN, Germany) and for detection: an […]
avalanch e photodiode SPCM-AQR-15 (EG & G, VAUDREUIL, Can ada) coupled with […]
a 650 nm long- wav e p ass filter as det ection system. The acquisition was p erformed by […]
a PicoHarp 300 module with a 4 channels router PHR-800 (both PicoQuant GmbH, […]
BERLIN, Germany ). Th e fluores cence decays were recorded using the single photon […]
counting method. Data were collected up to 1000 counts accumulated in the maximum […]
channel and analyzed using Time Correlated Single Photon Counting (TCSPC) […]
software Fluofit (PicoQuant GmbH, BERLIN, Germany) based on iterative reconvolution using a Levensberg- M arquandt alg oritm, enabling the obtention of multi-exponential profiles (m ainly one or two exponenti als in our cases ). […]

The conditions of data set [6]: standard, in acetonitrile; cited from earlier work.

These results are taken from article PMC13327620, “A Deep‐Red‐Absorbing Osmium(II) Complex as a Photosensitizer for Photodynamic Therapy Inducing Immunogenic Cell Death” (Angewandte Chemie (International Ed. in English), 2026).

Read-outs that look alike come from different tables or passages of the source.

In the case of `N.N.[Cl][Pt][Cl]` [Cisplatin], in the data set with MCA205 cells [1], the Tumor growth entry is reported as “Almost no inhibition”. In addition, in the data set on MCA205 cells [2], the “Concentration corresponding to approximately 5% cell survival” value stood at 500 µM. The “Concentration at which approximately 5% of the cells remained alive (IC95)” value in the data set on CT26‐luc cells amounted to 600 µM.

`Cc1cc(O)c2c(=O)c3c(O)cc(O)c4c5c(O)cc(O)c6c(=O)c7c(O)cc(C)c8c1c2c(c34)c(c78)c65` [Hypericin]: in data set [3], the IC50 turned out to be 1.66 ± 0.18 µM.

`O=C1[O][Pt]2([NH][C@@H]3CCCC[C@H]3[NH]2)[O]C1=O` [Oxaliplatin]: the Tumor growth result in the data set on MCA205 cells [1] is “partial suppression”. Moreover, in the data set with MCA205 cells [2], the “Concentration corresponding to approximately 5% cell survival” value is 1400 µM.

`C=CC1=C(C)c2cc3[nH]c(cc4nc(cc5[nH]c(cc1n2)c(C)c5CCC(=O)O)C(CCC(=O)O)=C4C)c(C)c3C=C` [PpIX, protoporphyrin IX]: the “PI (phototoxicity index, IC50 dark/IC50 light)” value in data set [4] (CT26, 620 nm) is recorded as more than 110. Further, the IC50 in data set [4] (CT26, CT26, dark, read-out: IC50 Dark) was more than 100 µM. Further, in data set [4] (CT26, light or radiation study, 1 h, CT26, 620 nm, 1.88 mW/cm^2, 60 min, read-out: IC50 620 nm (1 h, 6.75 J/cm^2)), the IC50 was found to be 0.91 ± 0.1 µM. Further, in data set [5], the Fluorescence lifetime was determined as 12.1 ns, the Fluorescence quantum yield is on record as 0.05 and the “Singlet oxygen quantum yield” value amounted to 0.77. Besides, the IC50 in data set [3] is 4.41 ± 0.09 µM.

As for `[Ru+2].c1ccc(-c2ccccn2)nc1.c1ccc(-c2ccccn2)nc1.c1ccc(-c2ccccn2)nc1` [[Ru(bpy)3]2+], in data set [6], the Fluorescence quantum yield is on record as 0.077 and the “Singlet oxygen quantum yield” value is listed as 0.77.
